Source: patent US20070128217A1 (priority 2003, published 2007)

What was measured:
[1] = system: control sera (pooled serum of ten healthy LUMC hospital workers; commercial negative donor pooled serum from the Dutch bloodbank); assay type: binding, human; set-up: Binding of Control serum LUMC to linear peptides / Binding of Control serum Blood-bank to linear peptides / Binding of Control serum LUMC to looped peptides / Binding of Control Serum Blood-Bank to Looped peptides / Binding of Control serum LUMC to linear peptides of the protein M of SARS-CoV Urbani / Binding of Control serum Blood-bank to linear peptides of the protein M of SARS-CoV Urbani / Binding of Control serum LUMC to looped peptides of the protein M of SARS-CoV Urbani / Binding of Control Serum Blood-Bank to Looped peptides of the protein M of SARS-CoV Urbani: unit not given here
[2] = system: antibodies in sera from SARS patients (sera 1a, 1b, 2, 6, 37, 62, London, SARS-yellow, SARS-green); assay type: binding, human; set-up: Binding of serum 6 to linear peptides of protein X1 of SARS-CoV Urbani / Binding of serum 37 to linear peptides of protein X1 of SARS-CoV Urbani / Binding of serum 6 to looped/cyclic peptide (PEPSCAN-ELISA) / Binding of serum 37 to looped/cyclic peptide (PEPSCAN-ELISA) / Binding of serum 37 to looped/cyclic peptides of protein X1 of SARS-CoV Urbani / Binding of serum 6 to linear peptides of protein X2 / Binding of serum 37 to linear peptides of protein X2 / Binding of serum 37 to looped/cyclic peptides of protein X2 of SARS-CoV Urbani / Binding of serum 6 to linear peptides of protein M of SARS-CoV Urbani / Binding of serum 37 to linear peptides of protein M of SARS-CoV Urbani / Binding of serum 6 to looped/cyclic peptides of protein M of SARS-CoV Urbani / Binding of serum 37 to looped/cyclic peptides of protein M of SARS-CoV Urbani / Binding of serum 6 to linear peptides of protein X3 of SARS-CoV Urbani / Binding of serum 37 to linear peptides of protein X3 of SARS-CoV Urbani / Binding of serum 37 to looped/cyclic peptides of protein X3 of SARS-CoV Urbani / Binding of serum 6 to linear peptides of protein X4 of SARS-CoV Urbani / Binding of serum 37 to linear peptides of protein X4 of SARS-CoV Urbani / Binding of serum 37 to looped/cyclic peptides of protein X4 of SARS-CoV Urbani / Binding of serum 6 to linear peptides of protein X5 of SARS-CoV Urbani / Binding of serum 37 to linear peptides of protein X5 of SARS-CoV Urbani / Binding of serum 37 to looped/cyclic peptides of protein X5 of SARS-CoV Urbani / Binding of serum 6 to linear peptides of protein N of SARS-CoV Urbani / Binding of serum 37 to linear peptides of protein N of SARS-CoV Urbani / Binding of serum 6 to linear peptide (PEPSCAN-ELISA) / Binding of serum 1a to looped/cyclic peptides of protein N of SARS-CoV Urbani / Binding of serum 1b to looped/cyclic peptides of protein N of SARS-CoV Urbani / Binding of serum 2 to looped/cyclic peptides of protein N of SARS-CoV Urbani / Binding of serum 6 to looped/cyclic peptides of protein N of SARS-CoV Urbani / Binding of serum 37 to looped/cyclic peptides of protein N of SARS-CoV Urbani / Binding of serum 62 to looped/cyclic peptides of protein N of SARS-CoV Urbani / Binding of serum London to looped/cyclic peptides of protein N of SARS-CoV Urbani / Binding of serum SARS-green to looped/cyclic peptides of protein N of SARS-CoV Urbani: unit not given here
[3] = system: rabbit serum obtained by immunizing a rabbit with the SARS-CoV strain Frankfurt 1; assay type: binding; set-up: Binding of a rabbit serum to linear peptides / Binding of a rabbit serum to looped peptides / Rabbit serum linear peptides / Rabbit serum looped peptides / Binding of a rabbit serum to linear peptides of protein N of SARS-CoV Urbani (Rabbit serum linear peptides) / Binding of a rabbit serum to looped/cyclic peptides of protein N of SARS-CoV Urbani (Rabbit serum looped peptides): unit not given here

ARSVSPKLFIRQEEV
Binding of Control Serum Blood-Bank to Looped peptides [1]: 0.7 | Binding of Control serum Blood-bank to linear peptides [1]: 0.7 | Binding of Control serum LUMC to linear peptides [1]: 0.6 | Binding of Control serum LUMC to looped peptides [1]: 0.7 | Binding of serum 1a to linear peptides of protein X4 of SARS-CoV Urbani [2]: 0.7 | Binding of serum 1a to looped/cyclic peptides of protein X4 of SARS-CoV Urbani [2]: 0.8 | Binding of serum 1b to linear peptides of protein X4 of SARS-CoV Urbani [2]: 0.6 | Binding of serum 1b to looped/cyclic peptides of protein X4 of SARS-CoV Urbani [2]: 0.5 | Binding of serum 2 to linear peptides of protein X4 of SARS-CoV Urbani [2]: 0.5 | Binding of serum 2 to looped/cyclic peptides of protein X4 of SARS-CoV Urbani [2]: 0.7 | Binding of serum 6 to linear peptides of protein X4 of SARS-CoV Urbani [2]: 0.6 | Binding of serum 6 to looped/cyclic peptides of protein X4 of SARS-CoV Urbani [2]: 0.5 | Binding of serum 37 to linear peptides of protein X4 of SARS-CoV Urbani [2]: 0.7 | Binding of serum 37 to looped/cyclic peptides of protein X4 of SARS-CoV Urbani [2]: 0.7 | Binding of serum 62 to linear peptides of protein X4 of SARS-CoV Urbani [2]: 0.7 | Binding of serum 62 to looped/cyclic peptides of protein X4 of SARS-CoV Urbani [2]: 0.6 | Binding of serum London to linear peptides of protein X4 of SARS-CoV Urbani [2]: 0.7 | Binding of serum London to looped/cyclic peptides of protein X4 of SARS-CoV Urbani [2]: 0.3 | Binding of serum SARS-green to linear peptides of protein X4 of SARS-CoV Urbani [2]: 0.6 | Binding of serum SARS-green to looped/cyclic peptides of protein X4 of SARS-CoV Urbani [2]: 0.6 | Binding of serum SARS-yellow to linear peptides of protein X4 of SARS-CoV Urbani [2]: 0.1 | Binding of serum SARS-yellow to looped/cyclic peptides of protein X4 of SARS-CoV Urbani [2]: 0.5 | Rabbit serum linear peptides [3]: 0.3 | Rabbit serum looped peptides [3]: 0.2

ARTRSMWSFNPETNI
Binding of Control Serum Blood-Bank to Looped peptides of the protein M of SARS-CoV Urbani [1]: 0.6 | Binding of Control serum Blood-bank to linear peptides of the protein M of SARS-CoV Urbani [1]: 0.7 | Binding of Control serum LUMC to linear peptides of the protein M of SARS-CoV Urbani [1]: 0.9 | Binding of Control serum LUMC to looped peptides of the protein M of SARS-CoV Urbani [1]: 0.7 | Binding of serum 1a to linear peptides of protein M of SARS-CoV Urbani [2]: 0.9 | Binding of serum 1a to looped/cyclic peptides of protein M of SARS-CoV Urbani [2]: 0.7 | Binding of serum 1b to linear peptides of protein M of SARS-CoV Urbani [2]: 0.8 | Binding of serum 1b to looped/cyclic peptides of protein M of SARS-CoV Urbani [2]: 0.1 | Binding of serum 2 to linear peptides of protein M of SARS-CoV Urbani [2]: 0.6 | Binding of serum 2 to looped/cyclic peptides of protein M of SARS-CoV Urbani [2]: 0.9 | Binding of serum 6 to linear peptides of protein M of SARS-CoV Urbani [2]: 0.7 | Binding of serum 6 to looped/cyclic peptides of protein M of SARS-CoV Urbani [2]: 0.6 | Binding of serum 37 to linear peptides of protein M of SARS-CoV Urbani [2]: 0.6 | Binding of serum 37 to looped/cyclic peptides of protein M of SARS-CoV Urbani [2]: 0.8 | Binding of serum 62 to linear peptides of protein M of SARS-CoV Urbani [2]: 0.5 | Binding of serum 62 to looped/cyclic peptides of protein M of SARS-CoV Urbani [2]: 0.8 | Binding of serum London to linear peptides of protein M of SARS-CoV Urbani [2]: 0.4 | Binding of serum London to looped/cyclic peptides of protein M of SARS-CoV Urbani [2]: 0.2 | Binding of serum SARS-green to linear peptides of protein M of SARS-CoV Urbani [2]: 0.7 | Binding of serum SARS-green to looped/cyclic peptides of protein M of SARS-CoV Urbani [2]: 0.1 | Binding of serum SARS-yellow to linear peptides of protein M of SARS-CoV Urbani [2]: 0.3 | Binding of serum SARS-yellow to looped/cyclic peptides of protein M of SARS-CoV Urbani [2]: 0.7 | Rabbit serum linear peptides [3]: 0.2 | Rabbit serum looped peptides [3]: 0.3
